# Results reported in patent US11345694B2, “Antibacterial compounds” (DISCUVA LTD., priority 2017, dated 2022).
# Where two headings read alike, the source gives them in different places.
# What was measured:
# [1] = test system: E. coli NCTC 13441 (UPEC); assay: MIC broth microdilution; assay type: cell-based, Escherichia coli; settings: for MIC: Escherichia coli, NCTC13441
# Method in brief: (§1)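 CLSI M07 broth microdilution; cation-adjusted MH broth; 2-fold series, final 0.39-200 μM, ≤2% DMSO final; 37° C, ambient atmosphere, 20-24 h. MIC = lowest conc. with no growth.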
# [2] = test system: Acinetobacter baumannii ATCC 17978 (AB); assay: MIC broth microdilution; assay type: cell-based; settings: for MIC: ATCC17978
# Method in brief: as §1
# [3] = test system: Escherichia coli K12 (EC); assay: MIC broth microdilution; assay type: cell-based
# Method in brief: as §1
# [4] = test system: Pseudomonas aeruginosa ATCC 33359 (PA); assay: MIC broth microdilution; assay type: cell-based; settings: for MIC: ATCC33359
# Method in brief: as §1
# [5] = test system: Salmonella typhimurium XNAA5 (St); assay: MIC broth microdilution; assay type: cell-based
# Method in brief: as §1
# [6] = test system: Serratia marcescens SL1344 (Sm); assay: MIC broth microdilution; assay type: cell-based
# Method in brief: as §1
# [7] = test system: Staphylococcus aureus ATCC 35556 (SA); assay: MIC broth microdilution; assay type: cell-based; settings: for MIC: ATCC35556
# Method in brief: as §1
# [8] = test system: Klebsiella pneumoniae ATCC 10031 (KP2); assay: MIC broth microdilution; assay type: cell-based; settings: for MIC: ATCC10031
# Method in brief: (§2)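 CLSI M07-A10 broth microdilution against planktonic cells, two-fold serial compound dilutions spanning 0.39-200 μM final, DMSO at most 2% final. Cation-adjusted Müller-Hinton broth, 37° C, ambient air; MIC taken as lowest concentration inhibiting growth after 20-24 hour incubation.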
# [9] = test system: K. pneumoniae ATCC 700603 (KP3); assay: MIC broth microdilution; assay type: cell-based, Klebsiella pneumoniae; settings: for MIC: Klebsiella pneumoniae, ATCC700603
# Method in brief: as §2
# [10] = test system: K. pneumoniae H151440671 (KP10); assay: MIC broth microdilution; assay type: cell-based, Klebsiella pneumoniae; settings: for MIC: Klebsiella pneumoniae
# Method in brief: as §2
# [11] = test system: K. pneumoniae H154020667 (KP6); assay: MIC broth microdilution; assay type: cell-based, Klebsiella pneumoniae; settings: for MIC: Klebsiella pneumoniae
# Method in brief: as §2
# [12] = test system: K. pneumoniae H154300688 (KP9); assay: MIC broth microdilution; assay type: cell-based, Klebsiella pneumoniae; settings: for MIC: Klebsiella pneumoniae
# Method in brief: as §2
# [13] = test system: K. pneumoniae H154600588 (KP8); assay: MIC broth microdilution; assay type: cell-based, Klebsiella pneumoniae; settings: for MIC: Klebsiella pneumoniae
# Method in brief: as §2
# [14] = test system: K. pneumoniae H154640784 (KP7); assay: MIC broth microdilution; assay type: cell-based, Klebsiella pneumoniae; settings: for MIC: Klebsiella pneumoniae
# Method in brief: as §2
# [15] = test system: K. pneumoniae H154680676 (KP5); assay: MIC broth microdilution; assay type: cell-based, Klebsiella pneumoniae; settings: for MIC: Klebsiella pneumoniae
# Method in brief: as §2
# [16] = test system: K. pneumoniae NCTC 13438 (KP1); assay: MIC broth microdilution; assay type: cell-based, Klebsiella pneumoniae; settings: for MIC: Klebsiella pneumoniae, NCTC13438
# Method in brief: as §2
# [17] = test system: human hepatocarcinoma cell line ATCC HB-8065 (HepG2); assay: Human cell viability (CellTiter-Glo); assay type: cell-based; settings: HepG2 cells, 24 h incubation, CellTiter-Glo luminescence, 0.2-100 μM, read-out: IC50 values against the HepG2 cell line
# Method in brief: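 Cytotoxicity was read as CellTiter-Glo luminescence after 24 h compound exposure at 37° C., 5% CO2. Final concentrations spanned 0.2-100 μM in two-fold steps, in 1% FBS MEM with 1% DMSO, on cells plated a day earlier at 20,000/well. IC50 came from 4-parameter logistic regression.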
# [18] = test system: Klebsiella pneumoniae ATCC 51504 (KP4); assay: MIC broth microdilution; assay type: cell-based; settings: ATCC51504
# Method in brief: as §1
SMILES,MIC [1],MIC [2],MIC [3],MIC [8],MIC [4],MIC [7],MIC [9],MIC [10],MIC [11],MIC [12],MIC [13],MIC [14],MIC [15],MIC [16],IC50 ([17]; Homo sapiens),MIC [18],also measured
O=C(O)c1cn(C2CC2)c2cc(N3CCNCC3)c(F)cc2c1=O [CIP],,,,,,,,,,,,,,,,,MIC UPEC [1]: D (a MIC of over 100 is assigned the letter D); MIC AB [2]: A (an MIC (μM) of less or equal to 1 is assigned the letter A); MIC EC [3]: A (an MIC (μM) of less or equal to 1 is assigned the letter A); MIC PA [4]: B (a MIC of from 1 to 10 is assigned the letter B); MIC St [5]: A (an MIC (μM) of less or equal to 1 is assigned the letter A); MIC Sm [6]: A (an MIC (μM) of less or equal to 1 is assigned the letter A); MIC SA [7]: B (a MIC of from 1 to 10 is assigned the letter B)
"COc1ncc(-c2nc(N)[nH]c2-c2ccnc(C)c2)cc1F [Example 29, 4-(5-Fluoro-6-methoxypyridin-3-yl)-5-(2-methylpyridin-4-yl)-1H-imidazol-2-amine]",≤ 1 µM,> 100 µM,≤ 1 µM,≤ 1 µM,> 100 µM,> 100 µM,10 to 100 µM,1 to 10 µM,1 to 10 µM,1 to 10 µM,10 to 100 µM,10 to 100 µM,1 to 10 µM,10 to 100 µM,> 100 µM,,
"Cc1cc(-c2[nH]c(N)nc2-c2ccc3c(c2)N(S(C)(=O)=O)CCO3)ccn1 [Example 55, 5-(2-Methylpyridin-4-yl)-4-(4-(methylsulfonyl)-3,4-dihydro-2H-benzo[b][1,4]oxazin-6-yl)-1H-imidazol-2-amine]",1 to 10 µM,> 100 µM,1 to 10 µM,≤ 1 µM,> 100 µM,> 100 µM,1 to 10 µM,1 to 10 µM,1 to 10 µM,1 to 10 µM,1 to 10 µM,1 to 10 µM,1 to 10 µM,10 to 100 µM,> 100 µM,1 to 10 µM,
"Cc1cc(-c2[nH]c(C)nc2-c2ccc3c(c2)OCCO3)ccn1 [Example 84, 4-(4-(2,3-Dihydrobenzo[b][1,4]dioxin-6-yl)-2-methyl-1H-imidazol-5-yl)-2-methylpyridine]",1 to 10 µM,> 100 µM,1 to 10 µM,≤ 1 µM,> 100 µM,> 100 µM,10 to 100 µM,1 to 10 µM,1 to 10 µM,10 to 100 µM,10 to 100 µM,10 to 100 µM,1 to 10 µM,10 to 100 µM,> 100 µM,,

# Now from value to molecule, other results behind:
MIC [1],MIC [2],MIC [3],MIC [8],MIC [4],MIC [7],MIC [9],MIC [10],MIC [11],MIC [12],MIC [13],MIC [14],MIC [15],MIC [16],IC50 ([17]; Homo sapiens),MIC [18],SMILES,also measured
,,,,,,,,,,,,,,,1 to 10 µM,"Cc1cc(-c2[nH]c(N)nc2-c2ccc3c(c2)OCCO3)ccn1 [Example 32, 4-(2,3-Dihydrobenzo[b][1,4]dioxin-6-yl)-5-(2-methylpyridin-4-yl)-1H-imidazol-2-amine]",MIC UPEC [1]: A (an MIC (μM) of less or equal to 1 is assigned the letter A); MIC AB [2]: D (a MIC of over 100 is assigned the letter D); MIC EC [3]: A (an MIC (μM) of less or equal to 1 is assigned the letter A); MIC KP2 [8]: A (an MIC (μM) of less or equal to 1 is assigned the letter A); MIC PA [4]: D (a MIC of over 100 is assigned the letter D); MIC SA [7]: D (a MIC of over 100 is assigned the letter D); MIC KP3 [9]: B (a MIC of from 1 to 10 is assigned the letter B); MIC KP10 [10]: B (a MIC of from 1 to 10 is assigned the letter B); MIC KP6 [11]: B (a MIC of from 1 to 10 is assigned the letter B); MIC KP9 [12]: B (a MIC of from 1 to 10 is assigned the letter B); MIC KP8 [13]: B (a MIC of from 1 to 10 is assigned the letter B); MIC KP7 [14]: B (a MIC of from 1 to 10 is assigned the letter B); MIC KP5 [15]: B (a MIC of from 1 to 10 is assigned the letter B); MIC KP1 [16]: B (a MIC of from 1 to 10 is assigned the letter B); IC50 [17]: > 100 µM
≤ 1 µM,> 100 µM,≤ 1 µM,≤ 1 µM,> 100 µM,> 100 µM,1 to 10 µM,1 to 10 µM,1 to 10 µM,1 to 10 µM,10 to 100 µM,1 to 10 µM,1 to 10 µM,1 to 10 µM,> 100 µM,1 to 10 µM,"Nc1nc(-c2ccc3c(c2)NCCO3)c(-c2ccnc(Cl)c2)[nH]1 [Example 45, 5-(2-Chloropyridin-4-yl)-4-(3,4-dihydro-2H-benzo[b][1,4]oxazin-6-yl)-1H-imidazol-2-amine]",
1 to 10 µM,> 100 µM,≤ 1 µM,≤ 1 µM,> 100 µM,> 100 µM,1 to 10 µM,1 to 10 µM,≤ 1 µM,1 to 10 µM,1 to 10 µM,1 to 10 µM,≤ 1 µM,1 to 10 µM,> 100 µM,≤ 1 µM,"Cc1cc(-c2[nH]c(N)nc2-c2cc(F)c3c(c2)NCCO3)ccn1 [Example 49, 4-(8-Fluoro-3,4-dihydro-2H-benzo[b][1,4]oxazin-6-yl)-5-(2-methylpyridin-4-yl)-1H-imidazol-2-amine]",
≤ 1 µM,> 100 µM,≤ 1 µM,≤ 1 µM,> 100 µM,> 100 µM,1 to 10 µM,≤ 1 µM,≤ 1 µM,1 to 10 µM,1 to 10 µM,1 to 10 µM,≤ 1 µM,1 to 10 µM,> 100 µM,≤ 1 µM,"Cc1cc(-c2[nH]c(N)nc2-c2cc3c(cc2F)OCCN3)ccn1 [Example 52, 4-(7-Fluoro-3,4-dihydro-2H-benzo[b][1,4]oxazin-6-yl)-5-(2-methylpyridin-4-yl)-1H-imidazol-2-amine]",
